Tested on: Rattus norvegicus
Settings: short-term, duration: 28 days, oral, gavage, Sprague-Dawley

O=S(=O)([O-])C(F)(F)C(F)(F)C(F)(F)C(F)(F)C(F)(F)C(F)(F)F.[K+] [Potassium perfluorohexanesulfonate]
12.5 mg/kg-day: LOEL (F, Clinical chemistry_Free thyroxine) | LOEL (F, Organ weights_R. adrenal gland - Absolute)
3.12 mg/kg-day: LOEL (F, Gene expression_Cyp2b1) | LOEL (F, Gene expression_Cyp2b2) | LOEL (F, Organ weights_Liver - Absolute) | LOEL (F, Organ weights_Liver - Relative)
1.25 mg/kg-day: LOEL (M, Clinical chemistry_Cholesterol) | LOEL (M, Gene expression_Cyp2b1) | LOEL (M, Gene expression_Cyp4a1) | LOEL (M, Hematology_Reticulocytes) | LOEL (M, Organ weights_Liver - Absolute) | LOEL (M, Organ weights_Liver - Relative)
0.625 mg/kg-day: LOEL (M, Clinical chemistry_Free thyroxine) | LOEL (M, Clinical chemistry_Total thyroxine) | LOEL (M, Clinical chemistry_Total triiodothyronine) | LOEL (M, Gene expression_Cyp2b2)
10 mg/kg-day: NOEL (M, Clinical chemistry_Alanine aminotransferase) | NOEL (M, Clinical chemistry_Albumin) | LOEL (M, Clinical chemistry_Albumin/globulin ratio) | NOEL (M, Clinical chemistry_Alkaline phosphatase) | NOEL (M, Clinical chemistry_Aspartate aminotransferase) | NOEL (M, Clinical chemistry_Direct bilirubin) | LOEL (M, Clinical chemistry_Globulin) | NOEL (M, Clinical chemistry_Sorbitol dehydrogenase) | NOEL (M, Clinical chemistry_Testosterone) | NOEL (M, Clinical chemistry_Thyroid stimulating hormone) | NOEL (M, Clinical chemistry_Total bile acids) | NOEL (M, Clinical chemistry_Total bilirubin) | NOEL (M, Clinical chemistry_Total protein) | NOEL (M, Hematology_Erythrocytes) | NOEL (M, Hematology_Hematocrit) | NOEL (M, Hematology_Hemoglobin) | NOEL (M, Hematology_Leukocytes) | NOEL (M, Hematology_S. neutrophils) | NOEL (M, Nonneoplastic effects_Bone marrow - Hypocellularity) | NOEL (M, Nonneoplastic effects_Kidney - Papilla, necrosis) | NOEL (M, Nonneoplastic effects_Liver - Hepatocyte, cytoplasmic alteration) | NOEL (M, Nonneoplastic effects_Liver - Hepatocyte, vacuolization cytoplasmic) | NOEL (M, Nonneoplastic effects_Liver - Necrosis) | NOEL (M, Nonneoplastic effects_Nose - Olfactory epithelium, degeneration) | NOEL (M, Nonneoplastic effects_Nose - Olfactory epithelium, hyperplasia) | NOEL (M, Nonneoplastic effects_Nose - Olfactory epithelium, inflammation, suppurative) | NOEL (M, Nonneoplastic effects_Nose - Olfactory epithelium, necrosis) | NOEL (M, Nonneoplastic effects_Spleen - Extramedullary hematopoiesis, decreased) | NOEL (M, Nonneoplastic effects_Stomach, forestomach - Epithelium, hyperplasia) | NOEL (M, Nonneoplastic effects_Thymus - Atrophy) | NOEL (M, Organ weights_Heart - Absolute) | NOEL (M, Organ weights_Heart - Relative) | NOEL (M, Organ weights_Lung - Absolute) | NOEL (M, Organ weights_Lung - Relative) | NOEL (M, Organ weights_R. kidney - Absolute) | LOEL (M, Organ weights_R. kidney - Relative) | NOEL (M, Organ weights_Spleen - Absolute) | NOEL (M, Organ weights_Spleen - Relative) | NOEL (M, Organ weights_Thymus - Absolute) | NOEL (M, Organ weights_Thymus - Relative) | NOEL (M, Reproductive toxicity_Altered sperm parameters) | NOEL (M, Survival rates) | NOEL (M, body weight)
6.25 mg/kg-day: LOEL (F, Clinical chemistry_Total thyroxine)
50 mg/kg-day: NOEL (F, Clinical chemistry_Alanine aminotransferase) | NOEL (F, Clinical chemistry_Albumin) | NOEL (F, Clinical chemistry_Albumin/globulin ratio) | NOEL (F, Clinical chemistry_Alkaline phosphatase) | NOEL (F, Clinical chemistry_Aspartate aminotransferase) | NOEL (F, Clinical chemistry_Cholesterol) | NOEL (F, Clinical chemistry_Direct bilirubin) | NOEL (F, Clinical chemistry_Globulin) | NOEL (F, Clinical chemistry_Sorbitol dehydrogenase) | NOEL (F, Clinical chemistry_Testosterone) | NOEL (F, Clinical chemistry_Thyroid stimulating hormone) | NOEL (F, Clinical chemistry_Total bile acids) | NOEL (F, Clinical chemistry_Total bilirubin) | NOEL (F, Clinical chemistry_Total protein) | NOEL (F, Clinical chemistry_Total triiodothyronine) | NOEL (F, Clinical chemistry_Triglycerides) | NOEL (F, Gene expression_Acox1) | NOEL (F, Gene expression_Cyp4a1) | NOEL (F, Hematology_Erythrocytes) | NOEL (F, Hematology_Hematocrit) | NOEL (F, Hematology_Hemoglobin) | NOEL (F, Hematology_Leukocytes) | NOEL (F, Hematology_Reticulocytes) | NOEL (F, Hematology_S. neutrophils) | NOEL (F, Nonneoplastic effects_Bone marrow - Hypocellularity) | NOEL (F, Nonneoplastic effects_Kidney - Papilla, necrosis) | NOEL (F, Nonneoplastic effects_Liver - Hepatocyte, cytoplasmic alteration) | NOEL (F, Nonneoplastic effects_Liver - Hepatocyte, hypertrophy) | NOEL (F, Nonneoplastic effects_Liver - Hepatocyte, vacuolization cytoplasmic) | NOEL (F, Nonneoplastic effects_Liver - Necrosis) | LOEL (F, Nonneoplastic effects_Nose - Olfactory epithelium, degeneration) | LOEL (F, Nonneoplastic effects_Nose - Olfactory epithelium, hyperplasia) | NOEL (F, Nonneoplastic effects_Nose - Olfactory epithelium, necrosis) | NOEL (F, Nonneoplastic effects_Spleen - Extramedullary hematopoiesis, decreased) | NOEL (F, Nonneoplastic effects_Stomach, forestomach - Epithelium, hyperplasia) | NOEL (F, Nonneoplastic effects_Thymus - Atrophy) | NOEL (F, Organ weights_Heart - Absolute) | NOEL (F, Organ weights_Heart - Relative) | NOEL (F, Organ weights_Lung - Absolute) | NOEL (F, Organ weights_Lung - Relative) | LOEL (F, Organ weights_R. adrenal gland - Relative) | NOEL (F, Organ weights_R. kidney - Absolute) | NOEL (F, Organ weights_R. kidney - Relative) | NOEL (F, Organ weights_Spleen - Absolute) | NOEL (F, Organ weights_Spleen - Relative) | NOEL (F, Organ weights_Thymus - Absolute) | NOEL (F, Organ weights_Thymus - Relative) | NOEL (F, Reproductive toxicity_Altered estrous cyclicity) | NOEL (F, Survival rates) | NOEL (F, body weight)
5 mg/kg-day: LOEL (M, Gene expression_Acox1) | LOEL (M, Gene expression_Acyl-CoA oxidase) | LOEL (M, Organ weights_R. adrenal gland - Absolute)
2.5 mg/kg-day: LOEL (M, Clinical chemistry_Triglycerides) | LOEL (M, Nonneoplastic effects_Liver - Hepatocyte, hypertrophy) | LOEL (M, Organ weights_R. adrenal gland - Relative)
